Results on seven molecules are retold here after ChEMBL document CHEMBL1201862, “PubChem BioAssay data set” (2004).

SMILES strings stand for the structures. Active and inactive are the calls of the source.

For one assay, the target named is Kallikrein-7 (Homo sapiens, UniProt P49862). The experiment in a line: Fluorescence Intensity-based biochemical primary high throughput dose response assay to identify activators of kallikrein-7 (K7) zymogen.
A further assay deals with T1, Protein Tat (Human immunodeficiency virus type 1 group M subtype B (isolate HXB2)(HIV-1), UniProt P04608).
T1 sequence (P04608 whole entry): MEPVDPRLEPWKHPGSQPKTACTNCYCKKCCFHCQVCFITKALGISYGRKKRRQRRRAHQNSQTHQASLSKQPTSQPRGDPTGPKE
In kind it is functional.

The nature of assay [1]: inhibitors of Vif binding to APOBEC3G peptide, primary screen, biochemical, TR-FRET, GST-Vif 1-94, biotin-A3G peptide, dose response retest (AID 1117319).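 Note: TR-FRET signal of purified GST-Vif binding a biotinylated A3G peptide; inhibitors lower the FRET signal by blocking Vif and A3G binding.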 In kind it is functional.
The next assay has as its target Paired box protein Pax-8 (Homo sapiens, UniProt Q06710). Description: inhibitors of PAX8-driven TPO luciferase reporter, dose response, RMG-I cells, cherry-pick (AID 687027).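 Note: luciferase reporter driven by Pax8 target thyroperoxidase promoter measured by SteadyGlo luminescence.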 The assay is classed as functional, cell-based.
Assay [2] is described as follows: A2780 ovarian cancer cell cytotoxicity, dose response, cytotoxicity control, plate reader, dry powder samples (AID 743046). The assay is classed as functional, cell-based.
Assay [3] can be described thus: cytotoxicity in OVCAR8 ovarian cancer cells, dose response, PAX8 project, cell-based, plate reader, dry powder samples (AID 743197). In kind it is functional. To be noted: OVCAR-8.
The nature of assay [4]: growth suppression of PTEN-null colon cells, dose response, cell-based, HCT116 PTEN knockout (AID 1047).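 Note: HCT116 colon tumor cells with PTEN knocked out; cells exposed to compound for 60 hours before readout; potency for loss of cell viability measured by luminescence.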 In kind it is functional.
A short description of assay [5]: growth suppression of beta-catenin-knockout colon cells, dose response, cell-based, HCT116, human colon tumor (AID 1045).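 Note: HCT116 colon tumor cells with beta catenin knocked out; cells exposed to compound for 60 hours.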 In kind it is functional.
Assay [6] has as its target T2, Replicative DNA helicase DnaB (Mycobacterium tuberculosis, UniProt P9WMR3).
T2 sequence (P9WMR3 whole entry): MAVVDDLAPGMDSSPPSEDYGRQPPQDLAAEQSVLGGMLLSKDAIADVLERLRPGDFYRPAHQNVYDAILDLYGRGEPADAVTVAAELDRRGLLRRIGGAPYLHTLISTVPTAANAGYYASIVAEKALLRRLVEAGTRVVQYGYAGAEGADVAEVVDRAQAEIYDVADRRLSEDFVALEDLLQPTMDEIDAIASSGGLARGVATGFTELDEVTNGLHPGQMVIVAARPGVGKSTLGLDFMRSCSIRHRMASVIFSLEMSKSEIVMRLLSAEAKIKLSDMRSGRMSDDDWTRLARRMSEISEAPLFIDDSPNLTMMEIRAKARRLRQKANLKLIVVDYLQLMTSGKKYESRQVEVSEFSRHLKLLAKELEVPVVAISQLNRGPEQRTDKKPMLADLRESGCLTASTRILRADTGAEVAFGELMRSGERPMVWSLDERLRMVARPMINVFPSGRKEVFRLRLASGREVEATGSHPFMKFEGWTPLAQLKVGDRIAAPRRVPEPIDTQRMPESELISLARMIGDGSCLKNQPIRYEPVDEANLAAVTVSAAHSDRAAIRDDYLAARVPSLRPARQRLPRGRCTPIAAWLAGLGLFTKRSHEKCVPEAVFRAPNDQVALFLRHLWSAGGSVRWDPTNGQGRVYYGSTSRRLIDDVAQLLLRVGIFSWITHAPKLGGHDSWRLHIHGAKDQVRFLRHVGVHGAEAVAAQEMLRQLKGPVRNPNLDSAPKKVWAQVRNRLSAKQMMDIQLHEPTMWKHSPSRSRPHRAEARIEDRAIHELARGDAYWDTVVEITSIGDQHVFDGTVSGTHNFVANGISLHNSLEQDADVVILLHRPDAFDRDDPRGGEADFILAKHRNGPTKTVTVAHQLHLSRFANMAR
Description: DnaB intein splicing inhibitors, dose response, biochemical, cell-free fluorescence (AID 449749). The assay is classed as functional.

A further assay deals with T3, Protein RecA (Mycobacterium tuberculosis, UniProt P9WHJ3).
T3 sequence (P9WHJ3 whole entry): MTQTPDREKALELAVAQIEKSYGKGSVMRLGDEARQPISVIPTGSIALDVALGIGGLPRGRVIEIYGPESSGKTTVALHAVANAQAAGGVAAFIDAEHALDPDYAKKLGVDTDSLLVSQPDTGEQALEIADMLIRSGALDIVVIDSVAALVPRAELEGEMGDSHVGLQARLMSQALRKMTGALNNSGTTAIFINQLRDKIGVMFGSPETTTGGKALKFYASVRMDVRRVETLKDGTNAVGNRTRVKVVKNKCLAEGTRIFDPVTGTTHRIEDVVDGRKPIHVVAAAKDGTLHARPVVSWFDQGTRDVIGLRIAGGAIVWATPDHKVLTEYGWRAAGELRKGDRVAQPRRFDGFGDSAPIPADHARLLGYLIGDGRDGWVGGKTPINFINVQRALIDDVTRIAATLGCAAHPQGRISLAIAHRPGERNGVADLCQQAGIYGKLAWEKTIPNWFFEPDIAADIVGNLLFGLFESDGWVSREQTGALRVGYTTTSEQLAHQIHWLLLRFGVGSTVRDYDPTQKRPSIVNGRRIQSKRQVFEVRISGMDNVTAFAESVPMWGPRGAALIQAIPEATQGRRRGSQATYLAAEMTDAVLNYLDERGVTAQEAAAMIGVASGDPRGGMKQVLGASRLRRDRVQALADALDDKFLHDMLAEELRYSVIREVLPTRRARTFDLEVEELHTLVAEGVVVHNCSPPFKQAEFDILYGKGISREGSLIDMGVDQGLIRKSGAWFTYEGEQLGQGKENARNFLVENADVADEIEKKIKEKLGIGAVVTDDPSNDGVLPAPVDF
The experiment in a line: Fluorescence Cell-Free Homogeneous Dose Retest to Identify Inhibitors of RecA-Intein Splicing Activity. [Related pubchem assays (depositor defined):AID2097, AID2223, AID489010, AID492950]. In kind it is functional.

In assay [7] the target is T4, Polyadenylate-binding protein 1 (Homo sapiens, UniProt P11940). The experiment in a line: PABP1 MLLE–PAM2 interaction inhibitors, dose response, miRNA deadenylation inhibitor project, biochemical, fluorescence polarization, Cy5-PAM2 peptide, secondary (AID 602260). The assay is classed as functional. To be noted: read-out: IC50_Mean.
For assay [8], the target named is T4, Polyadenylate-binding protein 1. The experiment in a line: PABP1 MLLE–PAM2 binding inhibitor potency, dose response, biochemical, fluorescence polarization, FITC-PAM2 peptide (AID 602259). The assay is classed as functional. To be noted: read-out: IC50_Mean.
A short description of assay [9]: THP-1 cell cytotoxicity, dose response, cytotoxicity control for Vif-APOBEC3G degradation inhibitor project, THP-1 cells (AID 1117359). The assay is classed as functional. To be noted: Human immunodeficiency virus 1, THP-1.
The nature of assay [10]: non-specific cell cytotoxicity, dose response, cytotoxicity control for PAX8 inhibitor project, plate reader, dry powder samples (AID 743021). In kind it is functional, cell-based.
Assay [11] can be described thus: LGR2 antagonists, dose response, cell-based, HEK293, CRE-luciferase reporter, cherry pick, set 2 (AID 743343).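 Note: transfected cells were stimulated with diluted bursicon conditioned medium after compound addition.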 In kind it is functional.
The nature of assay [12]: MC4R antagonists, dose response, counter-screen for LGR2 antagonist project, cell-based, plate reader, cherry pick (AID 743444).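 Note: transfected HEK 293 cells stimulated with alpha-MSH peptide; potency of inhibitors of the alpha-MSH evoked signal.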 The assay is classed as functional.
The nature of assay [13]: HEK293 cell cytotoxicity, dose response, cytotoxicity control, plate reader, cherry-picked samples (AID 743446). The assay is classed as functional, cell-based.

Chain of Kallikrein-7 (P49862 whole entry): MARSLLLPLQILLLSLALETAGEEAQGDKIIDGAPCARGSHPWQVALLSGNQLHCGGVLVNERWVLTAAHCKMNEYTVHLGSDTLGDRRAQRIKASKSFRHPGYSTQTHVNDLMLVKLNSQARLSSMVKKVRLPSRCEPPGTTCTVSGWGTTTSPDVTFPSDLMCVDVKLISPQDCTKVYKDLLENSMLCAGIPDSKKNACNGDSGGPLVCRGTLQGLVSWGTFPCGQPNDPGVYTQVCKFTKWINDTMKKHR
Chain of Paired box protein Pax-8 (Q06710 whole entry): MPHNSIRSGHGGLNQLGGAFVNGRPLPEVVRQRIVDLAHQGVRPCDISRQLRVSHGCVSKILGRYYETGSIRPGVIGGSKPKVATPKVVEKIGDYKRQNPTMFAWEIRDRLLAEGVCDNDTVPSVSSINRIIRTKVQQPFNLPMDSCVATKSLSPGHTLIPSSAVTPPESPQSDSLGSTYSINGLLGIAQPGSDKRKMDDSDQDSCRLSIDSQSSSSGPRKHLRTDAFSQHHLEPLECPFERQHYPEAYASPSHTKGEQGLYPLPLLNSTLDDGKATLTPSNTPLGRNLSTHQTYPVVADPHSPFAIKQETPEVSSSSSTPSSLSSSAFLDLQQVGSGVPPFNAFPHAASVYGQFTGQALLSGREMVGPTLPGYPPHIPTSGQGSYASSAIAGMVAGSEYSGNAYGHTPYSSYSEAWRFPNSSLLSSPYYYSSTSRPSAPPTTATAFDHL
T4 sequence (P11940 whole entry): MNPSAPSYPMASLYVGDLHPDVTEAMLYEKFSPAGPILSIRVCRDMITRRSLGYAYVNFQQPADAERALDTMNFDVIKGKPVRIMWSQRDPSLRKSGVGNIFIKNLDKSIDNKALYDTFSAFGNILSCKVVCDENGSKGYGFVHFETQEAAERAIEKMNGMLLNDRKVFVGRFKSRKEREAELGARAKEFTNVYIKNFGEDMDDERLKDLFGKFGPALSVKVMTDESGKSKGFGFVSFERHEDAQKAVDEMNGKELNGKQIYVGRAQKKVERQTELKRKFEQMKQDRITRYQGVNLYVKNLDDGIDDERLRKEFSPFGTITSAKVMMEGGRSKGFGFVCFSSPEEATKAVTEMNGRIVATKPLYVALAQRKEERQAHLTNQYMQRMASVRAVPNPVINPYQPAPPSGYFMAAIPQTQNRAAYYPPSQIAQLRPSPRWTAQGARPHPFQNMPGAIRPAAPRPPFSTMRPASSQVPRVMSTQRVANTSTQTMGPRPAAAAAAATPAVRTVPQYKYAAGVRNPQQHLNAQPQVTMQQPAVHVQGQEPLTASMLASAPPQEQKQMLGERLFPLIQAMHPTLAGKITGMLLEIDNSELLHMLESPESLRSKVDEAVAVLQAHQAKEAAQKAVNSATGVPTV

Consider `CCOCCCn1/c(=N\C(=O)c2ccco2)c(C(=O)OCC)cc2c(=O)n3cccc(C)c3nc21`, for which the EC50 at Kallikrein-7 was 38.7 µM (inactive).
Take `Cc1ccc(-n2c(C)cc(C(=O)OCC(=O)N(CC(C)C)C3CCS(=O)(=O)C3)c2C)cc1` (centres undefined): the IC50 (on Protein Tat; in [1]) was > 100 µM (active) each time.
Regarding `CN1C(=O)c2cc(NC(=O)c3cccc(Cl)c3)ccc2OC[C@@H]2O[C@H](CC(=O)NC3CCCCC3)CC[C@@H]21`, the values for the AC50 (on Paired box protein Pax-8; in [2]; in [3]) were 7.9 µM (active), 1.19 µM (active) and 51.9 µM (active), respectively.
As to `O=[N+]([O-])c1c(NCCCO)cc(SCc2ccco2)c2nonc12`, the EC50 was 27.1 µM (active) in assay [4], 18 µM (active) in assay [5] and 5.64 µM (active) at Protein RecA. Besides, the AC50 in [6] is 57.7 µM (active). In addition, the IC50 in assay [7] and in [8] was > 66 µM (inactive) throughout. In [9], the CC50 was > 40 µM (active).
Consider `Oc1nc2ccccc2n1C1CCN(C(c2cccs2)c2nnnn2-c2ccc3c(c2)OCCO3)CC1` (centres undefined), for which the results for the AC50 (at Paired box protein Pax-8; in [10]) were 1.78 µM (active) and 54.2 µM (active), respectively.
For `Cc1ccc(-c2nc(-c3ccccn3)no2)cc1[N+](=O)[O-]`, the figures for the AC50 in assay [11], in assay [12] and in assay [13] were 4.31 µM (active), 14.9 µM (active) and > 52 µM (inactive), respectively.
As to `CCOC(=O)N1CCN(C(=O)c2ccc3nc4ccsc4c(=O)n3c2)CC1`, the EC50 on Kallikrein-7 is 10.6 µM (inactive).
